Patent US12351819B2, “Method for removing undifferentiated pluripotent stem cells” (priority 2017, dated 2025)

Columns and labels:
hESCs teratoma formation = assay: In vivo tumorigenicity assay (teratoma formation of treated hESCs); details: hESCs treated 24 hours before subcutaneous injection into NSG mice; 8 weeks; vs DMSO
Experimental: Approximately 10^6 treated cells were mixed with 10^5 MEFs to promote teratoma formation in 50 μl PBS^32. The cells mixture and 1× Matrigel Matrix was mixed well and the cells were subcutaneously injected into NOD scid gamma mice (NSG mice) for 8 weeks. After 8 weeks, animals were sacrificed and teratoma was removed, fixed in 10% formalin, embedded in paraffin and stained with hematoxylin and eosin. H&E stain protocol was modified from previous study^33. For immunohistochemistry, teratoma sections were blocked using 5% milk for 1 hour, and stained with primary antibody at 4° C. overnight, follow by secondary antibody (Dako, Santa Clara, CA, USA) for 1 hour at RT and DAB enhancer (Dako). Primary antibody: anti-human alpha-1-fetoprotein (A0008, Dako) for endoderm lineage; anti-human smooth muscle actin, clone 1A4 (M0851, Dako) for mesoderm lineage; anti-Tuj1 (MAB1637, EMD Millipore, Darmstadt, Germany) for ectoderm.

[1] = test system: cleaved PARP, caspase3, caspase7 in hESC-MSCs; assay: Western blot of apoptotic markers, hESC-MSCs; type: cell-based, human; details: 2.5 μM, 12 hours
Experimental: RIPA buffer was used to harvest cell lysates (RIPA buffer: NaCl 150 mM, Tris pH 8.0 50 mM, EDTApH 8.0 5 mM, NP-40 1.0%, SDS 0.5%, sodium deoxycholate 0.1%). Western blot analyses were performed as previously described with different types of primary antibodies^29. The primary antibody includes anti-β-actin (A5441; Sigma), anti-Oct4 (sc-9081; Santa Cruz Biotechnology, Santa Cruz, CA, USA), anti-Nanog (3580; Cell Signaling Technology, Danvers, MA, USA), apoptosis antibody kit (9915; Cell Signaling Technology), ATP1A1 (3010; Cell Signaling Technology), and ATP1A2 (16836-1-AP; Proteintech™) were used. After reaction at 4° C. overnight, the blots were incubated with goat anti-mouse- or goat anti-rabbit antibody conjugated with horseradish peroxidase (Jackson ImmunoResearch Inc). The chemiluminescent substrate (WBKLS0500; Millipore, Darmstadt, Germany) was used to detect the blots. Fujifilm LAS-4000 (FUJIFILM, Tokyo, Japan) was used to take the images.

hBMMSCs = assay: Chondrogenic induction and Alcian blue assay; type: cell-based, human; details: 2.5 μM 24 hours, drug removed; Alcian blue O.D 650 nm
Experimental: Next, drugs were removed, and 1×10^5 cells were seeded in 96-well U-bottom culture plated. After 24 hours, we changed the complete MSCgo™ Chondrogenic medium (Biological Industries) for 21 days. The media were changed every 3-4 days. Next, the pelleted cells were fixed with 4% formaldehyde for 1 hours, washed twice with ddH2O, and stained with a 1% Alcian blue solution in 0.1N HCl for 30 min. For Alcian Blue elution, we added […] Guanidine HCL solution and incubated overnight at RT. The absorbance at 650 nm was detected.

HUES6 hESCs = assay: Cell colony and morphology under bright field, HUES6; type: cell-based, human; details: 2.5 μM, 12 hours and 24 hours
Text: Cells became round and died. […] Data are shown as the mean SD.

H9 hESC-MSCs [2] = assay: Cell morphology under bright field, H9 hESC-MSCs; type: cell-based, human; details: 2.5 μM, 12 hours and 24 hours
[3] = test system: hESC-hepatocyte endoderm cells; assay: LDH cytotoxicity assay in hESC-derived hepatocyte endoderm; type: cell-based, human; details: Table 1
Experimental: This protocol followed a method previously published in Nature Protocols^36. The hESCs were detached by 0.5 mM EDTA (Life Technologies, Camarillo, C, USA), seeded on VTN-N coated culture plates (Corning) and maintained for 48 hours in mTeSR 1 medium. Then, the medium was refreshed daily for all following steps. On days 1-2, the medium was replaced with fresh CDM-PVA (consisting of 0.5 g of PVA (Sigma) dissolved in 250 ml of IMDM/F-12, GlutaMAX (Invitrogen), 250 ml of IMDM (Invitrogen), 5 ml of chemically defined lipid concentrate (Invitrogen), 20 of thioglycerol 97% (Sigma), 350 of insulin (10 mg/ml; Roche), 250 of transferrin (30 mg/ml; Roche) plus Activin A (100 ng/ml; R&D), bFGF (80 ng/ml; R&D), BMP4 (10 ng/ml; R&D), and […] of LY-294002 (Promega). On day 3, the cells were differentiated in RPMI Medium supplemented with Activin A (100 ng/ml) and bFGF (80 ng/ml). On days 4-6, the cells were expanded in RPMI medium supplemented with Activin A (50 ng/ml). On day 7, the cells were passaged and re-plated 105,000 cells/cm^2 cells in VTN-N coated culture plates in RPMI containing Activin A (50 ng/ml) and Y-27632 2HCl (10 μM Selleck-chem, Houston, TX, USA and Munich, Germany). Then, the cells were maintained in RPMI+Activin A (50 ng/ml) on days 8-11. The cells were differentiated into the hepatocyte endoderm and analyzed following the drug treatments. The expression of alpha-fetoprotein (A0008, Dako, Santa Clara, CA, USA) was analyzed in the hepatocyte endoderm via immunofluorescence staining.

H9 hESC-MSCs [4] = details: 2.5 μM, 24 hours
Experimental: The supernatants of cells treated with digoxin […], lanatoside C 2.5 μm, or DMSO solvent control for 24 hours were harvested. The released LDH was measured using CytoTox 96 […] assay according to the manufacture's instruction (Promega, Southampton, UK). The supernatants and reagents were incubated at room temperature for 20 minutes and then the reaction was stopped by Stop Solution. The absorbance at 490 nm was measured using a plate-reading spectrophotometer (Benchmark Plus Microplate Spectrophotometer System, BIO-RAD, CA, USA).
According to the report from Dr. Xu and colleagues^30, hESCs were cultured with 10 ng/ml BMP4 and 1 μM of A8301 for 5 days. Next, the cells were passaged on the gelatin-coated plate and the culture medium was switched to MSC culture medium [Minimum Essential Medium Eagle Alpha Modification (αMEM) medium supplemented with 20% fetal bovine serum (FBS), 1-glutamine (Gluta-MAX), 1× nonessential amino acids]. Cells were expanded within passage 5, and CD73^+ (11-0793, ThermoFisher Scientific) and CD105^+ (12-1057, ThermoFisher Scientific) double positive cells were sorted.
hESC-derived MSCs were trypsinized and washed with PBS. Then cells were incubated with anti-human CD73 FITC (ThermoFisher Scientific) and anti-human CD105 PE (ThermoFisher Scientific) for 15 minutes at 4° C. Cells were washed cells with PBS for three times. CD73^+/CD105^+ cells were sorted with the cell sorter (BD FACSAria II, BD Biosciences). Sorted cells were maintained in MSC culture medium.

SMILES	tumor (teratoma) weight (hESCs teratoma formation)	cleaved form of apoptosis markers in hESC-MSCs [1]	differentiation ability of hBMMSCs into chondrocytes (hBMMSCs)	cell death (bright field morphology) in HUES6 (HUES6 hESCs)	cell death (bright field morphology) in H9 hESC-MSCs (H9 hESC-MSCs [2])	LDH assay positive, hepatocyte endoderm cells [3]	cytotoxicity (LDH release) in H9 hESC-MSCs (H9 hESC-MSCs [4])
C[C@H]1O[C@@H](O[C@H]2[C@@H](O)C[C@H](O[C@H]3[C@@H](O)C[C@H](O[C@H]4CC[C@@]5(C)[C@H](CC[C@@H]6[C@@H]5C[C@@H](O)[C@]5(C)[C@@H](C7=CC(=O)OC7)CC[C@]65O)C4)O[C@@H]3C)O[C@@H]2C)C[C@H](O)[C@@H]1O [Digoxin, digoxin]	significantly decreased	no cleaved form of the apoptosis markers was detected	neither digoxin nor lanatoside C affected the differentiation ability	induced cell death	Neither digoxin (2.5 μM) nor lanatoside C (2.5 μM) induced cell death	−/+ (10% positive cells)	Neither Digoxin nor lanatoside C affected the survival
CC(=O)O[C@H]1C[C@H](O[C@H]2[C@@H](O)C[C@H](O[C@H]3[C@@H](O)C[C@H](O[C@H]4CC[C@@]5(C)[C@H](CC[C@@H]6[C@@H]5C[C@@H](O)[C@]5(C)[C@@H](C7=CC(=O)OC7)CC[C@]65O)C4)O[C@@H]3C)O[C@@H]2C)O[C@H](C)[C@H]1O[C@@H]1O[C@H](CO)[C@@H](O)[C@H](O)[C@H]1O [Lanatoside C, lanatoside C]	significantly decreased	no cleaved form of the apoptosis markers was detected	neither digoxin nor lanatoside C affected the differentiation ability	induced cell death	Neither digoxin (2.5 μM) nor lanatoside C (2.5 μM) induced cell death	−/+ (10% positive cells)	Neither Digoxin nor lanatoside C affected the survival
